Results published in publication PMC8019628, “Acetylcholinesterase Inhibitory and Antioxidant Activity of the Compounds Isolated from Vanda roxburghii” (Advances in Pharmacological and Pharmaceutical Sciences, 2021).
Values after ≈ are worked out from the molar mass of the structure shown. Like-named read-outs stand apart in the source and are kept apart here.

Legend:
AChE = biological target: T1, AChE (Mus musculus, UniProt P21836); test: biochemical; conditions: for Z-factor of acetylcholinesterase inhibitory activity: assay performance of the compound versus control
T1 construct: The AChE enzyme was prepared from mouse brain as described earlier; from tissue; host or cells: brain of Swiss albino mice
T1 sequence (P21836 32-614): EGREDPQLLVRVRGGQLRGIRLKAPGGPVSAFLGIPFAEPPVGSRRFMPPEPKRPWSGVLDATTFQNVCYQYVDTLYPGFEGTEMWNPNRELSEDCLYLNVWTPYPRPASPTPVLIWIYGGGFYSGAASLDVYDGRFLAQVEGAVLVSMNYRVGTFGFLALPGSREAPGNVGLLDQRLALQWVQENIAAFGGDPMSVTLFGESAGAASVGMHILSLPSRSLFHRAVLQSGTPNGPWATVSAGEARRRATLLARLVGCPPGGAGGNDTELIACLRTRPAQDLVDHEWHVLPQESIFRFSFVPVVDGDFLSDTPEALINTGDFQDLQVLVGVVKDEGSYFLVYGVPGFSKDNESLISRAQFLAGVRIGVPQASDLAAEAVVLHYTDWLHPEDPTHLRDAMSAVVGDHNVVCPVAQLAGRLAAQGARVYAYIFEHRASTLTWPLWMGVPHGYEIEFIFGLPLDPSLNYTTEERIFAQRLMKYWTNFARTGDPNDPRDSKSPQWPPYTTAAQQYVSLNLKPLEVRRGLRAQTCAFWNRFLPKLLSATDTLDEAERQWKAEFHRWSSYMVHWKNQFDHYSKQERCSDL
Description: The AChE enzyme was prepared from mouse brain as described earlier. Compound at different concentrations was mixed with AChE solution and incubated at 37°C for 15 min. The rates of hydrolysis by AChE was monitored by spectrophotometer at 405 nm immediately after adding an Ellman's reaction mixture containing 0.5 mM acetylthiocholine and 1 mM 5, 5′-dithio-bis (2-nitro benzoic acid) (DTNB) in a 50 mM phosphate buffer (pH 8.0) to the above reaction mixture. […] The percentage inhibition of AChE activity was calculated using the following formula:(1) Absorbance of control−Absorbance of sample/Absorbance of control×100.
IC50 value could be calculated from the inhibition curve obtained by plotting the percent inhibition values against test concentrations of each compound.
Quality of assay was assessed by using Z' factor as follows:(2) Z′=1−3σc++σc−/μc+−μc−, where σc+ and σc−are the standard deviations of the positive and negative control and μc+ and μc−are the means of the positive and negative control, respectively.

[1] = DPPH radical scavenging assay; conditions: mean ± SD (n = 3)
Description: The DPPH radical scavenging ability of the compounds was estimated using the method described by Choi et al.. Catechin was used as a standard antioxidant for comparison. Compound at different concentrations was added to a methanolic solution of DPPH (0.135 mM) and vortexed and left for 30 minutes in the dark. The absorbance of the reaction mixture was measured spectrophotometrically at 517 nm. DPPH free radical scavenging ability (%) was calculated by using the following formula:(4) Absorbance of control−Absorbance of sample/Absorbance of control×100.
The result was presented as IC50 value which is the concentration required to cause 50% scavenging. The IC50 value was calculated from the graph plotted as percent scavenging of DPPH free radical against concentration of each compound.

[2] = Hydroxyl radical scavenging assay (deoxyribose degradation method); conditions: mean ± SD (n = 3)
Description: The potential of the compounds to scavenge the hydroxyl free radical was assayed by the deoxyribose degradation method as described by Elizabeth and Rao [23]. Catechin was used as a reference antioxidant. Compound at different concentrations was mixed with a reaction mixture containing 2.8 mM 2-deoxy-2-ribose, 20 mM phosphate buffer (pH 7.4), 100 μM FeCl3, 100 μM EDTA, 1.0 mM H2O2, and 100 μM ascorbic acid and incubated at 37°C for 1 hour. This was then followed by the addition of 2.8% trichloro acetic acid (TCA) and 1% TBA. The reaction mixture was heated on a boiling water bath. After cooling, the absorbance was measured at 532 nm against an appropriate blank solution. The result was expressed as percent scavenging of hydroxyl radical in relation to the control. The IC50 values were calculated from the graph plotted as percent scavenging of hydroxyl free radical against concentration of each compound.

[3] = Reducing power assay (Fe+3-ferricyanide reduction)
Description: The reducing power of the compounds was determined by the method of Oyaizu. The compound (1 ml) was added to a mixture of 0.2 M potassium buffer (2.5 ml) and 1% potassium ferricyanide (2.5 ml) and incubated at 50°C for 20 minutes. Then, 10% TCA solution (2.5 ml) was added to the reaction mixture and centrifuged (3000 rpm) for 10 minutes. Finally, 2.5 ml of solution was mixed with 2.5 ml of double distilled water and 0.5 ml of 0.1% ferric chloride solution. The absorbance of the reaction mixture was recorded at 700 nm. A standard antioxidant catechin was used for comparison.

[4] = Total antioxidant capacity (reduction of Mo (VI) to Mo (V)); conditions: 80 μg/ml, 695 nm, mean ± SD (n = 3)
Description: The antioxidant capacity of the compounds was assessed by the method as described earlier. The compound was added to a mixture of sulphuric acid (0.6 M), sodium phosphate (28 mM), and ammonium molybdate (4 mM) and heated in a water bath at 95°C for 90 min. After cooling to room temperature, the absorbance of the mixture was recorded at 695 nm against blank. A standard antioxidant catechin was used for comparison.

[5] = test system: lipid peroxidation in mouse brain homogenate; test: Lipid peroxidation inhibition assay (TBARS); format: biochemical; conditions: ferric ion plus ascorbic acid, mean ± SD (n = 3)
Description: . Catechin was used as a reference antioxidant. Mouse brain homogenate was employed as the source of lipid which was prepared by homogenizing the brain in the phosphate buffer followed by centrifugation at 10,000 g. Lipid peroxidation was induced by ferric ion plus ascorbic acid. The TBARS produced from the reaction of lipid peroxides with thiobarbituric acid was determined colorimetrically at 532 nm. Results were presented as percentage of lipid peroxidation inhibition in relation to the control. The IC50 values were determined from the graph plotted as percent inhibition of lipid peroxidation against concentration of each compound.

[6] = mouse brain AChE, acetylthiocholine substrate, mean ± SD (n = 3), read-out: IC50, inhibition of acetylcholinesterase activity (converted)
[7] = 100 μg/ml, 700 nm (as stated in Figure 4 legend), mean ± SD (n = 3)

| Structure (SMILES) | Z-factor of acetylcholinesterase inhibitory activity (AChE) | IC50 (AChE; [6]) [mM] | IC50, DPPH radical scavenging [1] | IC50, hydroxyl radical scavenging [2] | Reducing power, absorbance ([3]; 80 μg/ml) | Reducing power, absorbance [3, 7] | Total antioxidant activity, absorbance [4] | IC50, inhibition of lipid peroxidation [5] | IC50 (AChE) [mM] | IC50, inhibition of acetylcholinesterase activity (AChE; mouse brain AChE, acetylthiocholine substrate, mean ± SD (n = 3)) |
| --- | --- | --- | --- | --- | --- | --- | --- | --- | --- | --- |
| COc1cc(O)cc(CCc2ccc(O)c(OC)c2)c1 [Compound 5, gigantol] | 0.80 | 2 | 4.16 ± 0.37 µg/mL (≈ 15.2 µM) | 6.61 ± 0.76 µg/mL (≈ 24.1 µM) | 1.865 ± 0.030 | 1.865 ± 0.030 | 0.848 ± 0.029 | 32.28 ± 1.10 µg/mL | – | – |
| O.Oc1cc(O)c2c(c1)O[C@H](c1ccc(O)c(O)c1)[C@@H](O)C2 [Catechin, reference compound] | – | – | 4.35 ± 0.09 µg/mL | 9.32 ± 0.39 µg/mL | – | 1.964 ± 0.019 | 1.739 ± 0.049 | 14.10 ± 0.43 µg/mL | – | – |
| COc1cc(CCCOC(=O)CCc2ccc(O)cc2)ccc1O [Compound 4, dihydroconiferyl dihydro-p-coumarate] | 0.87 | 0.358 | 12.16 ± 0.55 µg/mL (≈ 36.8 µM) | 15.07 ± 1.20 µg/mL (≈ 45.6 µM) | 0.894 ± 0.014 | 0.894 ± 0.014 | 0.735 ± 0.022 | 44.20 ± 1.01 µg/mL | – | – |
| COc1cc(C=O)ccc1O [Compound 3, vanillin] | 0.91 | – | 19.64 ± 0.73 µg/mL (≈ 129 µM) | 21.72 ± 0.87 µg/mL (≈ 143 µM) | 0.746 ± 0.005 | 0.746 ± 0.005 | 0.716 ± 0.020 | 57.02 ± 2.78 µg/mL | 0.556 | – |
| CCCCC/C=C\C/C=C\CCCCCCCC(=O)OC [Compound 1, methyl linoleate] | – | – | no activity | no activity | – | no activity | no activity | no activity | – | no activity |
| COc1cc(C=O)cc(OC)c1O [Compound 2, syringaldehyde] | 0.80 | – | 40.64 ± 1.68 µg/mL (≈ 223 µM) | 91.05 ± 3.75 µg/mL (≈ 500 µM) | 0.667 ± 0.035 | 0.667 ± 0.035 | 0.336 ± 0.009 | 141.60 ± 6.19 µg/mL | 6.96 | – |
